How the values were obtained:
[1] = tested on: SHP-2 (WT and D61G) in mouse embryonic fibroblasts; experiment: in vivo (immunocomplex) phosphatase assay: EGF-induced activation of SHP-2 in embryonic fibroblasts; format: cell-based; settings: 100 μM, last 1 hour; WT and SHP-2D61G/D61G cells
Experimental: (§1) FIG. 5 illustrates in vivo effects of active compounds on SHP-2 activity and SHP-2-mediated signaling. (A) WT and mutant embryonic fibroblasts derived from activating mutation SHP-2 D61G knock-in mice were starved in serum-free medium overnight and were treated with the indicated compounds in the last 1 hour. Cells were then stimulated with EGF (20 ng/mL) for 10 min. Whole cell lysates were prepared and immunoprecipitated with anti-SHP-2 antibody. Immunoprecipitates were washed and then subjected to the in vitro phosphatase assay as described in the text. (B) Ba/F3 cells were deprived of IL-3 for 8 hours. The cells were treated with the indicated compounds 1 hour prior to the stimulation with IL-3 (2 ng/mL). Cells were harvested after the indicated periods of time. Whole cell lysates were prepared and examined for Erk activation with anti-phospho-Erk immunoblotting. The blot was striped and reprobed with anti-pan Erk antibody to examine protein loading.
For the in vivo phosphatase assay, mouse embryonic fibroblasts were used to assess the activities of the test compounds in inhibiting epidermal growth factor (EGF)-induced activation of SHP-2 catalytic activity. WT and mutant fibroblasts derived from activating mutation of SHP-2 D61G knock-in mice (SHP-2D61G/D61G)10 were starved in serum-free medium overnight and the tested compounds (100 μM) were added in the last 1 hour. […]

[2] = tested on: Erk activation in Ba/F3 cells; experiment: IL-3-induced Erk activation, anti-phospho-Erk immunoblotting; format: cell-based, murine; settings: Ba/F3 cells preincubated 1 hour
Experimental: as §1
We next tested whether the active compounds are effective in cells. […] Activation of SHP-2 in response to EGF stimulation was determined using the immunocomplex phosphatase assay. Compared to WT SHP-2, catalytic activity of SHP-2 D61G mutant in the mutant cells was increased both at the basal level and following EGF stimulation (FIG. 5A), consistent with previous studies. […]

[3] = target: T1, SHP-2 PTP domain GST fusion protein (Homo sapiens, UniProt Q06124); experiment: fluorescence titration (quenching of SHP-2 fluorescence); format: binding; set-up: Purified SHP-2 PTP domain GST-fusion protein was diluted into 20 mM Tris-HCl; made in house; settings: SHP-2 protein 3 μM, excitation 295 nm
T1 sequence (Q06124 247-517 limits assumed): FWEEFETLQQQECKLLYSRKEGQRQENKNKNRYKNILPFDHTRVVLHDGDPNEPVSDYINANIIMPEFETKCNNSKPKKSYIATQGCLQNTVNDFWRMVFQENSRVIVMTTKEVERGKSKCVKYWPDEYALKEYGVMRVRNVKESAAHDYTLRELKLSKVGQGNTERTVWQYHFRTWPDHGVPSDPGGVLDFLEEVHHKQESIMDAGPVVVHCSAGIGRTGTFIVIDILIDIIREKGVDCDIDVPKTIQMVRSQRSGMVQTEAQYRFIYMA
Experimental: For all experiments, Purified SHP-2 PTP domain GST-fusion protein was diluted into 20 mM Tris-HCl, pH 7.5. Fluorescence spectra were recorded with a Luminescence Spectrometer LS50 (Perkin-Elmer, Boston, Mass.). Titrations were performed by increasing the test compound concentration while maintaining the SHP-2 protein concentration at 3 μM. Contributions from background fluorescence of the inhibitors were accounted for by subtracting the fluorescence of the inhibitors alone from the of the protein-inhibitor solution. The excitation wavelength was 295 nm and fluorescence was monitored from 360 to 500 nm. All reported fluorescence intensities are relative values and are not corrected for wavelength variations in detector response.
To validate that the active compounds identified were binding directly to the SHP-2 protein, we determined whether the active compounds directly interacted with the SHP-2 PTP domain using fluorescence quenching and taking advantage of the four tryptophans in the PTP domain, with Trp248 located 15 Å from the putative pY+5 pocket and Trp423 located 8 Å from the phosphatase active site. […] Therefore, their binding to SHP-2 protein could not be determined using this measurement. Thus, the fluorescence quenching experiments indicate that at least four active compounds identified do directly bind to SHP-2, thereby leading to their biological activities.

[4] = target: T2, GST-PTP-MEG2 PTP domain (PTPN9) (Homo sapiens, UniProt P43378); experiment: in vitro phosphatase assay, PTP-MEG2; format: biochemical
T2 construct: GST-PTP-MEG2 PTP domain; purchased Biomol International, L.P. (Plymouth Meeting, Pa.)
T2 sequence (P43378 303-574 limits assumed): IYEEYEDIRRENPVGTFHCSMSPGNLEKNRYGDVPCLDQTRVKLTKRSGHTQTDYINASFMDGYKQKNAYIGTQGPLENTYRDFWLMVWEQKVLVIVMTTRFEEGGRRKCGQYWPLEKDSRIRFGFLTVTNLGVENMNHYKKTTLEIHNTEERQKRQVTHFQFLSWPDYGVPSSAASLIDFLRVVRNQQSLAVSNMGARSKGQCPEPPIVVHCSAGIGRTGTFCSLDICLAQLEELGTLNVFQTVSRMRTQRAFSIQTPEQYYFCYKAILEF
Experimental: Candidate compounds were screened using the in vitro protein tyrosine phosphatase (PTP) assay kit (Sigma, St. Lois, Mo.). […] The assay determines free phosphate generated by dephosphorylation of the PTP substrate using the Malachite Green reagent. Briefly, 0.5 μg of GST-SHP-2 PTP was incubated in 40 μL assay buffer (25 mM Tris-HCl, PH7.4, 50 mM NaCl, 5 mM DTT, and 2.5 mM EDTA) with test compounds at various concentrations or DMSO at room temperature for 30 min. The PTP substrate was then added to a final concentration of 0.2 mM. The system was incubated at 30° C. for 30 min. Finally, 50 μl of Malachite Green solution was added and OD620 was measured after 5 min. In the phosphatase assays for SHP-1, CD45, TC-PTP, PTP-MEG2 (PTPN9), and LAR (PTPRF), procedures were similar, with the exception that GST-SHP-1, GST-CD45 cytoplasmic domain, GST-TC-PTP, GST-PTP-MEG2 PTP domain, and GST-LAR PTP domain purchased from Biomol International, L.P. (Plymouth Meeting, Pa.) were used instead as the enzymes.

| quenching of SHP-2 fluorescence [3] | IC50 [4] [µM] | Compound | EGF-induced activation of SHP-2 [1] | Erk activation by IL-3 [2] |
| --- | --- | --- | --- | --- |
| strong quenching | – | NS(=O)(=O)c1ccc(CCNC(=O)c2ccc(Cn3c(=S)[nH]c4ccc(Br)cc4c3=O)cc2)cc1 [#216] | blocked | suppressed |
| strong quenching | – | Cc1cc(C)c2c(c1)[nH]c1nnc(SCC(=O)NCc3cccs3)nc12 [#220] | blocked | suppressed |
| – | 177 | Cc1cc(C)c2[nH]c3nc(SCC(=O)Nc4cccc5ccccc45)nnc3c2c1 [#324] | – | – |
